According to the supplement of paper PMC10307832:

Assays:
Experiment in all cases: relative viability (nuclei count vs DMSO), 5 days (fraction); higher = more cells survive
Bleomycin + Pemetrexed = compound: CC1=C(N=C(N=C1N)[C@H](CC(=O)N)NC[C@@H](C(=O)N)N)C(=O)N[C@@H]([C@H](C2=CN=CN2)OC3C(C(C(C(O3)CO)O)O)OC4C(C(C(C(O4)CO)O)OC(=O)N)O)C(=O)N[C@H](C)[C@H]([C@H](C)C(=O)N[C@@H]([C@@H](C)O)C(=O)NCCC5=NC(=CS5)C6=NC(=CS6)C(=O)NCCC[S+](C)C)O [Bleomycin] + Nc1nc2[nH]cc(CCc3ccc(C(=O)N[C@@H](CCC(=O)O)C(=O)O)cc3)c2c(=O)[nH]1 [Pemetrexed] (partner 0.2 µM); settings: main component drawn
In short: (§1)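 Cells from lung cancer lines were seeded into 1536-well plates and, one day later, dosed by pin tool. Treatments were either a single drug or a fixed dose of an anchor drug with five library-drug doses (not always all listed) in √10 steps. After 5 days, nuclei were stained in a one-step fixation (final 0.05% Triton X-100, 1% formaldehyde, 1 ug/ml Hoechst) and counted on 4× images, and relative viability is the treated-to-vehicle nuclei ratio, as the median of duplicate plates.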

Etoposide + Trametinib = compound: COc1cc([C@@H]2c3cc4c(cc3[C@@H](O[C@@H]3O[C@@H]5CO[C@@H](C)O[C@H]5[C@H](O)[C@H]3O)[C@H]3COC(=O)[C@H]23)OCO4)cc(OC)c1O [Etoposide] + CC(=O)Nc1cccc(-n2c(=O)n(C3CC3)c(=O)c3c(Nc4ccc(I)cc4F)n(C)c(=O)c(C)c32)c1 [Trametinib] (partner 0.02 µM)
In short: as §1

Etoposide + Foretinib = compound: COc1cc([C@@H]2c3cc4c(cc3[C@@H](O[C@@H]3O[C@@H]5CO[C@@H](C)O[C@H]5[C@H](O)[C@H]3O)[C@H]3COC(=O)[C@H]23)OCO4)cc(OC)c1O [Etoposide] + COc1cc2c(Oc3ccc(NC(=O)C4(C(=O)Nc5ccc(F)cc5)CC4)cc3F)ccnc2cc1OCCCN1CCOCC1 [Foretinib] (partner 0.25 µM)
In short: as §1

Etoposide + Pemetrexed = compound: COc1cc([C@@H]2c3cc4c(cc3[C@@H](O[C@@H]3O[C@@H]5CO[C@@H](C)O[C@H]5[C@H](O)[C@H]3O)[C@H]3COC(=O)[C@H]23)OCO4)cc(OC)c1O [Etoposide] + Nc1nc2[nH]cc(CCc3ccc(C(=O)N[C@@H](CCC(=O)O)C(=O)O)cc3)c2c(=O)[nH]1 [Pemetrexed] (partner 0.2 µM)
In short: as §1

Row | Cell Line | relative viability (Bleomycin + Pemetrexed; first compound 0.01 µM) | relative viability (Bleomycin + Pemetrexed; first compound 0.03162 µM) | relative viability (Bleomycin + Pemetrexed; first compound 0.1 µM) | relative viability (Bleomycin + Pemetrexed; first compound 0.3162 µM) | relative viability (Bleomycin + Pemetrexed; first compound 1 µM) | relative viability (Etoposide + Trametinib; first compound 0.01 µM) | relative viability (Etoposide + Trametinib; first compound 0.03162 µM) | relative viability (Etoposide + Trametinib; first compound 0.1 µM) | relative viability (Etoposide + Trametinib; first compound 0.3162 µM) | relative viability (Etoposide + Trametinib; first compound 1 µM) | relative viability (Etoposide + Foretinib; first compound 0.01 µM) | relative viability (Etoposide + Foretinib; first compound 0.03162 µM) | relative viability (Etoposide + Foretinib; first compound 0.1 µM) | relative viability (Etoposide + Foretinib; first compound 0.3162 µM) | relative viability (Etoposide + Foretinib; first compound 1 µM) | relative viability (Etoposide + Pemetrexed; first compound 0.01 µM) | relative viability (Etoposide + Pemetrexed; first compound 0.03162 µM) | relative viability (Etoposide + Pemetrexed; first compound 0.1 µM) | relative viability (Etoposide + Pemetrexed; first compound 0.3162 µM) | relative viability (Etoposide + Pemetrexed; first compound 1 µM)
1 | NCI-H2347 | 0.401 | 0.427 | 0.435 | 0.383 | 0.423 | 0.25 | 0.301 | 0.25 | 0.269 | 0.278 | 0.844 | 0.981 | 0.515 | 0.59 | 0.387 | 0.454 | 0.487 | 0.401 | 0.386 | 0.383
2 | NCI-H1944 | 0.36 | 0.398 | 0.313 | 0.216 | 0.157 | 0.435 | 0.46 | 0.297 | 0.255 | 0.175 | 0.697 | 0.95 | 0.578 | 0.471 | 0.347 | 0.591 | 0.797 | 0.396 | 0.44 | 0.189
3 | NCI-H1793 | 0.739 | 0.729 | 0.692 | 0.134 | 0.191 |  | 0.484 | 0.357 | 0.352 | 0.293 | 0.491 | 0.644 |  | 0.503 | 0.248 |  | 0.97 | 0.458 | 0.629 | 0.226
4 | NCI-H596 | 0.474 | 0.46 | 0.465 | 0.305 | 0.332 | 0.7 | 0.965 | 0.772 | 0.727 | 0.646 | 0.748 | 0.833 | 1.04 | 0.799 | 0.596 | 0.463 | 0.539 | 0.488 | 0.546 | 0.477
5 | NCI-H520 | 0.731 | 0.757 | 0.653 | 0.443 | 0.446 | 0.597 | 0.645 | 0.414 | 0.617 | 0.49 | 0.825 | 0.93 | 0.784 | 0.67 | 0.554 | 0.633 | 0.801 | 0.708 | 0.65 | 0.485
6 | EKVX | 0.36 | 0.317 | 0.315 | 0.285 | 0.2 | 0.287 | 0.382 | 0.303 | 0.295 | 0.169 | 1.09 | 0.711 | 0.448 | 0.237 | 0.303 | 0.351 | 0.443 | 0.344 | 0.285 | 0.248
7 | NCI-H358 | 0.164 | 0.197 | 0.168 | 0.183 | 0.175 | 0.141 | 0.122 | 0.119 | 0.118 | 0.0938 | 0.705 | 0.756 | 0.447 | 0.184 | 0.134 | 0.179 | 0.186 | 0.178 | 0.168 | 0.157
8 | EPLC-272H | 0.294 | 0.198 | 0.146 | 0.121 | 0.131 | 0.33 | 0.284 | 0.254 | 0.267 | 0.267 | 0.626 | 0.722 | 0.552 | 0.61 | 0.255 | 0.344 | 0.327 | 0.318 | 0.315 | 0.308
9 | NCI-H1395 | 0.64 | 0.702 | 0.566 | 0.4 | 0.371 | 0.962 | 1.15 | 0.839 | 1.01 | 0.808 | 1 | 0.978 | 0.868 | 0.885 | 0.606 | 0.765 | 0.894 | 0.758 | 0.823 | 0.599
10 | NCI-H2228 | 0.317 | 0.291 | 0.263 | 0.199 | 0.185 | 0.485 | 0.576 | 0.32 | 0.279 | 0.168 | 0.803 | 1.04 | 0.812 | 0.519 | 0.204 | 0.375 | 0.358 | 0.355 | 0.299 | 0.181
11 | LXF-289 | 0.852 | 0.901 | 0.845 | 0.588 | 0.218 | 0.742 | 0.705 | 0.71 | 0.531 | 0.2 | 0.973 | 0.971 | 1.02 | 0.611 | 0.327 | 0.961 | 0.952 | 1.04 | 0.788 | 0.285
12 | NCI-H2009 | 0.889 | 1.03 | 1.04 | 0.736 | 0.503 | 0.239 | 0.286 | 0.168 | 0.246 | 0.216 | 1.17 | 1.24 | 1.17 | 0.835 | 0.694 | 0.976 | 0.957 | 1.12 | 0.703 | 0.57
13 | SW 900 | 0.469 | 0.461 | 0.391 | 0.2 | 0.191 | 0.741 | 0.653 | 0.649 | 0.354 | 0.25 | 0.806 | 0.87 | 0.725 | 0.596 | 0.278 | 0.419 | 0.543 | 0.522 | 0.47 | 0.204
14 | NCI-H3122 | 0.214 | 0.205 | 0.201 | 0.165 | 0.166 | 0.23 | 0.223 | 0.153 | 0.23 | 0.215 | 0.972 | 0.975 | 0.962 | 0.682 | 0.449 | 0.21 | 0.207 | 0.206 | 0.19 | 0.179
15 | NCI-H1755 | 0.529 | 0.442 | 0.426 | 0.381 | 0.415 | 0.751 | 0.787 | 0.692 | 0.723 | 0.546 | 0.958 | 0.974 | 0.919 | 0.883 | 0.869 | 0.468 | 0.467 | 0.519 | 0.41 | 0.428
